In one experiment the test system is KLF2. The experiment can be described thus: qPCR KLF2 concentration response. The conditions noted are these: read-out: qPCR KLF2 Conc Response (EC50). Type of experiment: cell-based. For orientation: Real-time PCR tracks product formation cycle by cycle.
Experiment [1] deals with primary human endothelial cells expressing luciferase under the control of the KLF2 promoter. The experiment can be described thus: KLF2 induction cell based bioassay (GLuc KLF2 concentration response, luciferase reporter). To be noted: 24 hours incubation, 11-point concentration response; for IC50: 24 h, read-out: GLuc KLF2 Conc Response (IC50) Avg; for EC50: EC50 = concentration where normalized curve passes 0.5, read-out: GLuc KLF2 Conc Response (EC50) Ave. From the text:
In endothelial cell culture media, a stock of the highest working concentration was made at no more than 1% DMSO vehicle. The working stock was then serially diluted 1:2 to make an 11-point concentration response curve. Included in the 96-well plate were 2 reference compounds with known potencies. A DMSO column was included in the 96-well plate at the highest percent vehicle of the working stocks. The 96-well cell culture plate of primary human endothelial cells expressing luciferase under the control of the KLF2 promoter was dosed with 200 μL per well of the dilution series as well as the DMSO control column. The assay plate was incubated at 37° C. for 24 hours. The supernatant was collected at 24 hours.
20 μL of the supernatant was then placed in a 384-well plate with optical duplicates. The corners of the plate received 20 μL of the Gaussia Luciferase Enzyme positive control, as well as 20 μL of the 50 μM Coelenterizine substrate. The plate read is then calibrated using the control, and read using a Molecular Devices SpectraMax iD5, providing luminescence in relative light units (RLU). The plate reader injected 20 μL of the 50 μM Coelenterazine substrate immediately before taking the RLU measurement for each well.
The sample signals were then normalized to the average signal of the DMSO column, as well as to the maximum signal of one of the reference compounds, as shown in the equations below: […]
The EC50 of each compound is then defined as when the concentration response curve passes 0.5.
A general note: A reporter such as luciferase makes a cellular process visible.

Each structure is given as a SMILES string.

By EC50 is commonly meant the concentration giving half of the maximal effect. As a reminder, the IC50 is the concentration at which inhibition is half-maximal.

Take `COc1ccccc1CNC(=O)C1(C)COc2c(oc3ccccc23)C(=O)N1CC1(F)CCC1` (centres unmarked) [Example 2]: the 50% effective concentration (EC50) in the experiment on KLF2 was found to be 10 nM; in experiment [1], 20 nM. The IC50 in experiment [1] was 200 nM.

For `COc1ccccc1CNC(=O)C1(C)COc2c(oc3ccccc23)C(=O)N1CC(C)(C)OC` (centres unmarked) [Example 3], the EC50 in the experiment with KLF2 was determined as 10 nM. Moreover, in experiment [1], the IC50 was found to be 340 nM and the EC50 turned out to be 60 nM.

Turning to `C#CCCN1C(=O)c2oc3ccccc3c2OCC1(C)C(=O)NCc1ccccc1OC` (centres unmarked) [Example 5], in experiment [1], the IC50 came to 150 nM and the EC50 worked out at 40 nM.

For the compound `C#CCCN1C(=O)c2oc3ccccc3c2OC[C@]1(C)C(=O)NCc1ccccc1OC` [Example 6], in the experiment with KLF2, the concentration for a half-maximal effect (EC50) stood at 10 nM. Moreover, in experiment [1], the IC50 worked out at 70 nM and the EC50 came out at 20 nM.

These data come from US20250109143A1, “KLF2 INDUCING DEUTERATED COMPOUNDS AND USES THEREOF” (Riparian Pharmaceuticals, Inc., priority 2023, published 2025).
